Measured values reported in US12697326B2, “Methods of treating hepatic encephalopathy” (SALIX PHARMACEUTICALS, INC., priority 2008, dated 2026).

Tested on: breakthrough HE episode in subjects with hepatic encephalopathy (HE)
Assay: Time to first breakthrough (overt) HE episode, first study, rifaximin vs placebo
Type: in vivo, human
Conditions: for Cumulative number of events / Number of events / Probability of no breakthrough overt HE (Kaplan-Meier event-free estimate): ITT, first breakthrough overt HE
Excerpt: An increase in the Conn score of greater than or equal to grade 2 was considered as a breakthrough HE episode.
An efficacy endpoint was the time to first breakthrough overt HE episode. A breakthrough overt HE episode was defined as an increase of Conn score to Grade ≥2 (e.g., 0) or 1 to ≥2) or an increase in Conn and asterixis score of 1 grade each for those subjects who entered the study with a Conn score of 0. Time to breakthrough overt HE episode was the duration from time of first dose of study drug to the first breakthrough overt HE episode. […] Subjects who terminated early for reasons other than breakthrough overt HE were contacted at 6 months from randomization to determine if subjects had experienced a breakthrough overt HE episode or other outcome (e.g., mortality status); and, if the subject had no breakthrough overt HE event prior to contact, he/she was censored at the time of contact. […] Subjects in the study had ≥2 episodes of overt HE equivalent to Conn score ≥2 within 6 months prior to screening (i.e., subjects had documented recurrent, overt HE). At the baseline assessment, subjects were in remission with a Conn score of 0 or 1. A breakthrough overt HE episode, as defined above, was a marked deterioration in neurological function.
Presented herein are the results of the first study and second study. […] The primary efficacy endpoint was the time to breakthrough overt HE. Breakthrough overt HE was defined as an increase of Conn score to Grade ≥2 (e.g., 0 or 1 to ≥2) or an increase in Conn and asterixis score of 1 grade each for those subjects who entered the study with a Conn score of 0. Subjects discontinued from the study at the time of breakthrough overt HE episode. After participation in the first study, subjects had the option to enroll in the open-label, treatment-extension study (the second study).
FIG. 1 illustrates Kaplan-Meier estimates of time to first breakthrough overt HE episode by treatment group in the ITT population. Table 18 presents Kaplan-Meier estimates of the proportions of subjects who experienced breakthrough overt HE over the course of the Treatment Period and results of statistical analyses. […] Subjects who terminated early for reasons other than breakthrough overt HE (eg, liver transplant, AE, subject request) were contacted at 6 months from date of randomization to determine if subjects had experienced a breakthrough overt HE episode or other outcome (e.g., mortality status). Subjects without breakthrough overt HE were censored at the time of contact or death, whichever was earlier.

[1] = breakthrough HE episode by baseline Conn score level, 550 mg BID, N = 93, Days >= 168
[2] = breakthrough HE episode by baseline Conn score level; 550 mg BID; N = 93; Days [0-28)
[3] = breakthrough HE episode by baseline Conn score level; 550 mg BID; N = 93; Days [28-56)
[4] = breakthrough HE episode by baseline Conn score level; 550 mg BID; N = 93; Days [56-84)
[5] = breakthrough HE episode by baseline Conn score level; 550 mg BID; N = 93; Days [84-140)
[6] = breakthrough HE episode by baseline Conn score level; 550 mg BID; N = 93; Days [140-168)
[7] = breakthrough HE episode by baseline MELD score level, 550 mg BID, N = 11, Days >=168
[8] = breakthrough HE episode by baseline MELD score level; 550 mg BID; N = 11; Days [0-28)
[9] = breakthrough HE episode by baseline MELD score level; 550 mg BID; N = 11; Days [28-56)
[10] = breakthrough HE episode by baseline MELD score level; 550 mg BID; N = 11; Days [56-84)
[11] = breakthrough HE episode by baseline MELD score level; 550 mg BID; N = 11; Days [84-140)
[12] = breakthrough HE episode by baseline MELD score level; 550 mg BID; N = 11; Days [140-168)
[13] = breakthrough HE episode by baseline MELD score level, 550 mg BID, N = 34, Days >=168
[14] = breakthrough HE episode by baseline MELD score level; 550 mg BID; N = 34; Days [0-28)
[15] = breakthrough HE episode by baseline MELD score level; 550 mg BID; N = 34; Days [28-56)
[16] = breakthrough HE episode by baseline MELD score level; 550 mg BID; N = 34; Days [56-84)
[17] = breakthrough HE episode by baseline MELD score level; 550 mg BID; N = 34; Days [84-140)
[18] = breakthrough HE episode by baseline MELD score level; 550 mg BID; N = 34; Days [140-168)
[19] = breakthrough HE episode by baseline MELD score level, 550 mg BID, N = 85, Days >=168
[20] = breakthrough HE episode by baseline MELD score level; 550 mg BID; N = 85; Days [0-28)
[21] = breakthrough HE episode by baseline MELD score level; 550 mg BID; N = 85; Days [28-56)
[22] = breakthrough HE episode by baseline MELD score level; 550 mg BID; N = 85; Days [56-84)
[23] = breakthrough HE episode by baseline MELD score level; 550 mg BID; N = 85; Days [84-140)
[24] = breakthrough HE episode by baseline MELD score level; 550 mg BID; N = 85; Days [140-168)
[25] = breakthrough HE episode by prior lactulose use, 550 mg BID, N = 123, Days >=168
[26] = breakthrough HE episode by prior lactulose use; 550 mg BID; N = 123; Days [0-28)
[27] = breakthrough HE episode by prior lactulose use; 550 mg BID; N = 123; Days [28-56)
[28] = breakthrough HE episode by prior lactulose use; 550 mg BID; N = 123; Days [56-84)
[29] = breakthrough HE episode by prior lactulose use; 550 mg BID; N = 123; Days [84-140)
[30] = breakthrough HE episode by prior lactulose use; 550 mg BID; N = 123; Days [140-168)
[31] = breakthrough HE episode by prior lactulose use, 550 mg BID, N = 127, Days >=168
[32] = breakthrough HE episode by prior lactulose use; 550 mg BID; N = 127; Days [0-28)
[33] = breakthrough HE episode by prior lactulose use, 550 mg BID, N = 127, Days [28-56]
[34] = breakthrough HE episode by prior lactulose use, 550 mg BID, N = 127, Days [56-84]
[35] = breakthrough HE episode by prior lactulose use; 550 mg BID; N = 127; Days [84-140)
[36] = breakthrough HE episode by prior lactulose use; 550 mg BID; N = 127; Days [140-168)
[37] = breakthrough HE episode, 550 mg BID, N = 140, Days >=168
[38] = breakthrough HE episode; 550 mg BID; N = 140; Days [0-28)
[39] = breakthrough HE episode; 550 mg BID; N = 140; Days [28-56)
[40] = breakthrough HE episode; 550 mg BID; N = 140; Days [56-84)
[41] = breakthrough HE episode; 550 mg BID; N = 140; Days [84-140)
[42] = breakthrough HE episode; 550 mg BID; N = 140; Days [140-168)
[43] = first study, N = 140, treatment interval 0 to <28 days
[44] = first study, N = 140, treatment interval 28 to 56 days
[45] = first study, N = 140, treatment interval 56 to <84 days
[46] = first study, N = 140, treatment interval 84 to <149 days
[47] = first study, N = 140, treatment interval 140 to <168 days
[48] = first study, N = 140, treatment interval ≥168 days

## CO[C@H]1/C=C/O[C@@]2(C)Oc3c(C)c(O)c4c(O)c(c5c(nc6cc(C)ccn65)c4c3C2=O)NC(=O)/C(C)=C\C=C\[C@H](C)[C@H](O)[C@@H](C)[C@@H](O)[C@@H](C)[C@H](OC(C)=O)[C@@H]1C [Rifaximin]
[1]
  Cumulative Occurrences of Events: 19
  Occurrences of Events: 0
  Survival: 0.7924
[2]
  Occurrences of Events: 11
  Survival: 1.0000
[3]
  Occurrences of Events: 3
  Survival: 0.8817
[4]
  Occurrences of Events: 1
  Survival: 0.8491
[5]
  Occurrences of Events: 3
  Survival: 0.8380
[6]
  Occurrences of Events: 1
  Survival: 0.8042
[7]
  Cumulative Occurrences of Events: 4
  Occurrences of Events: 0
  Survival: 0.6364
[8]
  Cumulative Occurrences of Events: 1
  Occurrences of Events: 1
  Survival: 1.0000
[9]
  Cumulative Occurrences of Events: 1
  Occurrences of Events: 0
  Survival: 0.9091
[10]
  Cumulative Occurrences of Events: 4
  Occurrences of Events: 3
  Survival: 0.9091
[11]
  Cumulative Occurrences of Events: 4
  Occurrences of Events: 0
  Survival: 0.6364
[12]
  Cumulative Occurrences of Events: 4
  Occurrences of Events: 0
  Survival: 0.6364
[13]
  Cumulative Occurrences of Events: 2
  Occurrences of Events: 0
  Survival: 0.9398
[14]
  Cumulative Occurrences of Events: 1
  Occurrences of Events: 1
  Survival: 1.0000
[15]
  Cumulative Occurrences of Events: 1
  Occurrences of Events: 0
  Survival: 0.9706
[16]
  Cumulative Occurrences of Events: 1
  Occurrences of Events: 0
  Survival: 0.9706
[17]
  Cumulative Occurrences of Events: 2
  Occurrences of Events: 1
  Survival: 0.9706
[18]
  Cumulative Occurrences of Events: 2
  Occurrences of Events: 0
  Survival: 0.9398
[19]
  Cumulative Occurrences of Events: 20
  Occurrences of Events: 0
  Survival: 0.7580
[20]
  Cumulative Occurrences of Events: 8
  Occurrences of Events: 8
  Survival: 1.0000
[21]
  Cumulative Occurrences of Events: 10
  Occurrences of Events: 2
  Survival: 0.9059
[22]
  Cumulative Occurrences of Events: 13
  Occurrences of Events: 3
  Survival: 0.8822
[23]
  Cumulative Occurrences of Events: 19
  Occurrences of Events: 6
  Survival: 0.8459
[24]
  Cumulative Occurrences of Events: 20
  Occurrences of Events: 1
  Survival: 0.7713
[25]
  Cumulative Occurrences of Events: 29
  Occurrences of Events: 0
  Survival: 0.7586
[26]
  Cumulative Occurrences of Events: 12
  Occurrences of Events: 12
  Survival: 1.0000
[27]
  Cumulative Occurrences of Events: 16
  Occurrences of Events: 4
  Survival: 0.9024
[28]
  Cumulative Occurrences of Events: 21
  Occurrences of Events: 5
  Survival: 0.8696
[29]
  Cumulative Occurrences of Events: 28
  Occurrences of Events: 7
  Survival: 0.8278
[30]
  Cumulative Occurrences of Events: 29
  Occurrences of Events: 1
  Survival: 0.7678
[31]
  Cumulative Occurrences of Events: 29
  Occurrences of Events: 0
  Survival: 0.7666
[32]
  Cumulative Occurrences of Events: 12
  Occurrences of Events: 12
  Survival: 1.0000
[33]
  Cumulative Occurrences of Events: 16
  Occurrences of Events: 4
  Survival: 0.9055
[34]
  Cumulative Occurrences of Events: 22
  Occurrences of Events: 6
  Survival: 0.8737
[35]
  Cumulative Occurrences of Events: 28
  Occurrences of Events: 6
  Survival: 0.8252
[36]
  Cumulative Occurrences of Events: 25
  Occurrences of Events: 1
  Survival: 0.7754
[37]
  Cumulative Occurrences of Events: 31
  Occurrences of Events: 0
  Survival: 0.7740
[38]
  Cumulative Occurrences of Events: 13
  Occurrences of Events: 13
  Survival: 1.0000
[39]
  Cumulative Occurrences of Events: 17
  Occurrences of Events: 4
  Survival: 0.9071
[40]
  Cumulative Occurrences of Events: 23
  Occurrences of Events: 6
  Survival: 0.8783
[41]
  Cumulative Occurrences of Events: 30
  Occurrences of Events: 7
  Survival: 0.8344
[42]
  Cumulative Occurrences of Events: 31
  Occurrences of Events: 1
  Survival: 0.7820
First study
  reduction, compared with placebo, in the risk of a breakthrough overt HE episode after adjusting for prognostic factors: 60%
[43]
  Cumulative number of events: 13
  Number of events: 13
  Probability of no breakthrough overt HE (Kaplan-Meier event-free estimate): 1.0000
[44]
  Cumulative number of events: 17
  Number of events: 4
  Probability of no breakthrough overt HE (Kaplan-Meier event-free estimate): 0.9071
[45]
  Cumulative number of events: 23
  Number of events: 6
  Probability of no breakthrough overt HE (Kaplan-Meier event-free estimate): 0.8783
[46]
  Cumulative number of events: 30
  Number of events: 7
  Probability of no breakthrough overt HE (Kaplan-Meier event-free estimate): 0.8344
[47]
  Cumulative number of events: 31
  Number of events: 1
  Probability of no breakthrough overt HE (Kaplan-Meier event-free estimate): 0.7820
[48]
  Cumulative number of events: 31
  Number of events: 0
  Probability of no breakthrough overt HE (Kaplan-Meier event-free estimate): 0.7740
First study, rifaximin group
  proportion of subjects with breakthrough overt HE: 22%
First study, rifaximin group, 6-month period, up to Day 170
  subjects who experienced breakthrough overt HE episodes (of 140): 31
In vivo
  time to breakthrough HE event vs placebo (FIG. 2, Kaplan Meier): increased time to breakthrough HE events
